From ChEMBL document CHEMBL1142815, “Influence of acid surrogates toward potency of VLA-4 antagonist” (Bioorg Med Chem Lett, 2005) come the findings set out here.

In data set [1] the target is T1, Integrin alpha-4/beta-1 (Homo sapiens, UniProt P05556+P13612). Nature of the data set: Inhibition of VLA-4 receptor of Jurkat cells in BURJ assay. The format is cell-based.
In data set [2] the target is T1, Integrin alpha-4/beta-1. Nature of the data set: Percentage binding to VLA-4 receptor of Jurkat cells. It is filed as cell-based.
Data set [3] is described as follows: Area under plasma concentration curve in rat upon intravenous administration of 5 mg/kg. It is filed as ADME, organism-based. The arrangement: dose 5 mg/kg, route intravenous.
A short description of data set [4]: Maximum concentration in rat plasma upon peroral administration of 5 mg/kg. It is filed as ADME, organism-based. Details: dose 5 mg/kg, route oral. The following applies: po.
Data set [5] is described as follows: Half-life in rat upon intravenous administration of 5 mg/kg. It is filed as ADME, organism-based. The arrangement: dose 5 mg/kg, route intravenous. The following applies: in vivo.
A short description of data set [6]: Plasma clearance in rat upon intravenous administration of 5 mg/kg. It is filed as ADME, organism-based. Details: dose 5 mg/kg, route intravenous.
Data set [7] can be described thus: Volume of distribution of compound in rat plasma upon intravenous administration of 5 mg/kg. It is filed as ADME, organism-based. The arrangement: dose 5 mg/kg, route intravenous.
Data set [8] is described as follows: Oral bioavailability in rat upon oral administration of 5 mg/kg. The following applies: in vivo.

T1 sequence (P05556 whole entry): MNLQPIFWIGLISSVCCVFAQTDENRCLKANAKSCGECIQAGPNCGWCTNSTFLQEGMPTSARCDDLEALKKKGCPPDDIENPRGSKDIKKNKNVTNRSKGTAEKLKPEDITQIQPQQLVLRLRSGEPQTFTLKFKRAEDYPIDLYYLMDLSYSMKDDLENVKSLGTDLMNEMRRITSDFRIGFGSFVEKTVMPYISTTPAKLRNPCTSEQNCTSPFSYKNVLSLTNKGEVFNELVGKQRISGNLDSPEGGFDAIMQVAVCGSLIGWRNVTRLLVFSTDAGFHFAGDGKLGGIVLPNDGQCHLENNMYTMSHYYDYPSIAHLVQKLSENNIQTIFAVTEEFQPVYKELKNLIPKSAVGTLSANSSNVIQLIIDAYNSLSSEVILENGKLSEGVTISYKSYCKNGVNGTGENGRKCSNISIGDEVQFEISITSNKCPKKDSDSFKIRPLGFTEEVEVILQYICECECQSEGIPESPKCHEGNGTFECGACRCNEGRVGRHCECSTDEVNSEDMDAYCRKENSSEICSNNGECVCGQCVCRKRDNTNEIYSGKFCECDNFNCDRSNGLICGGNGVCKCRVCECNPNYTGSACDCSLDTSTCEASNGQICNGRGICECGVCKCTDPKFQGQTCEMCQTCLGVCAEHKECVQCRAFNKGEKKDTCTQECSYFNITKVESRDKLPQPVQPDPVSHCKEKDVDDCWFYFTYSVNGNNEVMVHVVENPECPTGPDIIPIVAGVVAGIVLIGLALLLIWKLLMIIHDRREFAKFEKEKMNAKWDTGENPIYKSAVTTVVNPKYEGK
T1 sequence (P13612 whole entry): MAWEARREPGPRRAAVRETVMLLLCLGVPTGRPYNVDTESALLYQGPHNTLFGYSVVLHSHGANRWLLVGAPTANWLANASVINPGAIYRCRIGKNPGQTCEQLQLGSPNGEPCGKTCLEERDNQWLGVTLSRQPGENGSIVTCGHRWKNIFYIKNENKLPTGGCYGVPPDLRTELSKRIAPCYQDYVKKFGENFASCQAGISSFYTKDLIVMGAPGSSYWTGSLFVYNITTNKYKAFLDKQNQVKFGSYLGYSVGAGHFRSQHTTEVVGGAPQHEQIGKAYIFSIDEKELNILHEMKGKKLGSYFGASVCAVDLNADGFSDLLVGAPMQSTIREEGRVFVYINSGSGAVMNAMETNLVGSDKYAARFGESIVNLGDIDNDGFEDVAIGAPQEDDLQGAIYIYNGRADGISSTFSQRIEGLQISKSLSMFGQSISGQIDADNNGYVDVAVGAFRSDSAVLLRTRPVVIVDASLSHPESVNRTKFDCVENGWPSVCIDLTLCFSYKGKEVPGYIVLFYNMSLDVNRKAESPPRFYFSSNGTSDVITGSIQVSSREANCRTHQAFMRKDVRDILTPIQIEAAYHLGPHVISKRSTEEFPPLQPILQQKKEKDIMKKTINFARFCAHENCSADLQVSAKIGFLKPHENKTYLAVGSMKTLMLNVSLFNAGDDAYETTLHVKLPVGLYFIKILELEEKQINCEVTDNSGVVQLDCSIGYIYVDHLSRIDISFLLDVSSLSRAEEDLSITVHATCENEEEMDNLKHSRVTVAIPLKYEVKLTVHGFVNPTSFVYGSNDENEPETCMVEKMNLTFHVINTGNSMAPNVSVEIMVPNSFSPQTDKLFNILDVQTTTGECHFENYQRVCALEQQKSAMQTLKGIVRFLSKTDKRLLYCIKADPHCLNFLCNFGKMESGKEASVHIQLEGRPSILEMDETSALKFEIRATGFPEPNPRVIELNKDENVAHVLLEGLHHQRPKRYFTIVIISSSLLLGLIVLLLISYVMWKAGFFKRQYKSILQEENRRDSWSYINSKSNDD

As a reminder, the IC50 is the concentration at which inhibition is half-maximal. A high value points to lower potency. At Integrin alpha-4/beta-1 [1], `O=C(Nc1ccc(C[C@H](NC(=O)[C@@H]2CCCN2S(=O)(=O)c2cc(Cl)cc(Cl)c2)c2nnn[nH]2)cc1)c1c(Cl)cncc1Cl` displayed an IC50 of 60 nM. Besides, on Integrin alpha-4/beta-1 [2], the Percent binding to VLA-4 stood at 0%.

Compound `O=C(Nc1ccc(C[C@H](NC(=O)[C@@H]2CCCN2S(=O)(=O)c2cc(Cl)cc(Cl)c2)C(=O)NC(=O)C(F)(F)F)cc1)c1c(Cl)cncc1Cl` came in with an IC50 against Integrin alpha-4/beta-1 [1] of 10 nM. Besides, the Percent binding to VLA-4 on Integrin alpha-4/beta-1 [2] turned out to be 0%.

At Integrin alpha-4/beta-1 [1], `O=C(Nc1ccc(C[C@H](NC(=O)[C@@H]2CCCN2S(=O)(=O)c2cc(Cl)cc(Cl)c2)C(=O)NS(=O)(=O)C(F)(F)F)cc1)c1c(Cl)cncc1Cl` came in with an IC50 of 11 nM. Further, the Percent binding to VLA-4 at Integrin alpha-4/beta-1 [2] was 0%.

On to `O=C(Nc1ccc(C[C@H](NC(=O)[C@@H]2CCCN2S(=O)(=O)c2cc(Cl)cc(Cl)c2)c2cc(O)[nH]n2)cc1)c1c(Cl)cncc1Cl`, for which, at Integrin alpha-4/beta-1 [1], the IC50 worked out at 300 nM. Further, on Integrin alpha-4/beta-1 [2], the Percent binding to VLA-4 is 6%.

As usually defined, the AUC is the area under the concentration-time curve, a measure of exposure. Lower therefore signals less exposure. Usually Cmax stands for the highest concentration seen after dosing. The term half-life denotes the time needed for the level to fall by half in the phase considered. Read a high half-life as slow loss. Broadly, the clearance is the volume of plasma or blood freed of the substance per unit of time. Broadly, the Vd is the apparent volume that relates the amount in the body to the concentration in plasma or blood. Lower therefore signals confinement near the circulation. The term bioavailability denotes dose-corrected exposure relative to a reference, in per cent. A higher bioavailability goes with much systemic uptake. In data set [3], `O=C(Nc1ccc(C[C@H](NC(=O)[C@@H]2CCCN2S(=O)(=O)c2cc(Cl)cc(Cl)c2)c2noc(O)n2)cc1)c1c(Cl)cncc1Cl` displayed an exposure (AUC) of 2.01 µM·h. The same compound displayed an IC50 against Integrin alpha-4/beta-1 [1] of 12 nM. Besides, the concentration in data set [4] peaked (Cmax) at 6.1 nM. In data set [5], this compound had a half-life of 2.78 h. On Integrin alpha-4/beta-1 [2], this compound displayed a Percent binding to VLA-4 of 0%. This compound also came in with a clearance in data set [6] of 60 mL/min/kg. Besides, in data set [7], the Vd is 2.61 L/kg. Moreover, in data set [8], the bioavailability came out at 0.19%.

In the case of `O=C(Nc1ccc(C[C@H](NC(=O)[C@@H]2CCCN2S(=O)(=O)c2cc(Cl)cc(Cl)c2)c2cc(O)no2)cc1)c1c(Cl)cncc1Cl`, the Percent binding to VLA-4 on Integrin alpha-4/beta-1 [2] was found to be 8%.

The compound `COc1cccc(OC)c1-c1ccc(C[C@@H](Cn2oc(=O)[nH]c2=O)NC(=O)[C@@H]2CCCN2S(=O)(=O)c2cc(Cl)cc(Cl)c2)cc1` returned an IC50 against Integrin alpha-4/beta-1 [1] of 6000 nM.

As to `CCOC(=O)CC(=O)[C@H](Cc1ccc(NC(=O)c2c(Cl)cncc2Cl)cc1)NC(=O)[C@@H]1CCCN1S(=O)(=O)c1cc(Cl)cc(Cl)c1`, inhibition against Integrin alpha-4/beta-1 [1] was half-maximal at 13 nM (IC50). Moreover, the Percent binding to VLA-4 on Integrin alpha-4/beta-1 [2] came out at 10%.

With `O=C(Nc1ccc(C[C@H](NC(=O)[C@@H]2CCCN2S(=O)(=O)c2cc(Cl)cc(Cl)c2)c2cc(=O)[nH]o2)cc1)c1c(Cl)cncc1Cl`, the AUC in data set [3] came out at 3.51 µM·h. Also, half-maximal inhibition at Integrin alpha-4/beta-1 [1] (IC50) was put at 20 nM. This compound showed a half-life in data set [5] of 2.85 h. The clearance in data set [6] stood at 37.6 mL/min/kg. In data set [7], the Vd was 1.25 L/kg.

In the case of `O=C(Nc1ccc(C[C@H](NC(=O)[C@@H]2CCCN2S(=O)(=O)c2cc(Cl)cc(Cl)c2)C(=O)O)cc1)c1c(Cl)cncc1Cl`, the AUC in data set [3] amounted to 0.68 µM·h. The compound also had an IC50 at Integrin alpha-4/beta-1 [1] of 0.03 nM. In data set [4], this compound displayed a Cmax of 3.14 nM. In data set [5], this compound gave a half-life of 0.72 h. Further, the Percent binding to VLA-4 on Integrin alpha-4/beta-1 [2] worked out at 66%. The same compound yielded a clearance in data set [6] of 38.2 mL/min/kg. In addition, the Vd in data set [7] was found to be 0.57 L/kg.
